# Assay results as given in patent US11382328B2, “Rapid drug discovery methods for pathogen inactivation” (priority 2019, dated 2022).
# System: E. coli strain W3110
# Assay: Synergy assays: Biolog chemical sensitivity panels with Group IB metal, coefficient of drug interaction (CDI) from relative growth
# Format: cell-based
# Details: for CDI (coefficient of drug interaction), gold + biocide: Gold (μM); for CDI (coefficient of drug interaction), copper mixed with biocide: Copper (mM) section
# [1] = Copper 0.1 mM, biocide concentration 3 of 4
# [2] = Copper 0.1 mM, biocide concentration 4 of 4
# [3] = Copper 0.5 mM, biocide concentration 3 of 4
# [4] = Copper 0.5 mM, biocide concentration 4 of 4
# [5] = Copper 1.0 mM, biocide concentration 3 of 4
# [6] = Copper 1.0 mM, biocide concentration 4 of 4
# [7] = Gold 5 μM, biocide concentration 3 of 4, E. coli
# [8] = Gold 5 μM, biocide concentration 4 of 4, E. coli
# [9] = Gold 25 μM, biocide concentration 3 of 4, E. coli
# [10] = Gold 25 μM, biocide concentration 4 of 4, E. coli
# [11] = Silver 0.5 μM, 2nd of four biocide concentrations, E. coli
# [12] = Silver 0.5 μM, 3rd of four biocide concentrations, E. coli
# [13] = Silver 0.5 μM, 4th of four biocide concentrations, E. coli
# [14] = Silver 1.0 μM, 2nd of four biocide concentrations, E. coli
# [15] = Silver 1.0 μM, 3rd of four biocide concentrations, E. coli
# [16] = Silver 1.0 μM, 4th of four biocide concentrations, E. coli
# [17] = Silver 5.0 μM, 2nd of four biocide concentrations, E. coli
# [18] = Silver 5.0 μM, 3rd of four biocide concentrations, E. coli
# [19] = Silver 5.0 μM, 4th of four biocide concentrations, E. coli
# [20] = […], biocide concentration 3 of 4, E. coli
# [21] = […], biocide concentration 4 of 4, E. coli
# [22] = Silver 0.5 μM, biocide concentration 4 of 4
# [23] = Silver 1.0 μM, biocide concentration 4 of 4
# [24] = Silver 5.0 μM, biocide concentration 4 of 4
# [25] = Gold section of Table 5, first of three gold concentrations (μM, value not given), biocide concentration 4 of 4
# [26] = Gold section of Table 5, second of three gold concentrations (μM, value not given), biocide concentration 4 of 4
# [27] = Gold section of Table 5, third of three gold concentrations (μM, value not given), biocide concentration 4 of 4
compound,measurement,setting,value
CCCCc1ccc(C(=O)O)nc1 [fusaric acid],CDI,[1],Tox
same,CDI,[2],Tox
same,CDI,[3],Tox
same,CDI,[4],Tox
same,CDI,[5],Tox
same,CDI,[6],Tox
same,CDI (coefficient of drug interaction),[7],Tox
same,CDI (coefficient of drug interaction),[8],Tox
same,CDI (coefficient of drug interaction),[9],Tox
same,CDI (coefficient of drug interaction),[10],Tox
same,"CDI (coefficient of drug interaction), silver + biocide",[11],Tox
same,"CDI (coefficient of drug interaction), silver + biocide",[12],Tox
same,"CDI (coefficient of drug interaction), silver + biocide",[13],Tox
same,"CDI (coefficient of drug interaction), silver + biocide",[14],Tox
same,"CDI (coefficient of drug interaction), silver + biocide",[15],Tox
same,"CDI (coefficient of drug interaction), silver + biocide",[16],Tox
same,"CDI (coefficient of drug interaction), silver + biocide",[17],Tox
same,"CDI (coefficient of drug interaction), silver + biocide",[18],Tox
same,"CDI (coefficient of drug interaction), silver + biocide",[19],Tox
same,CDI (coefficient of drug interaction),[20],Tox
same,CDI (coefficient of drug interaction),[21],Tox
"O=[N+]([O-])c1ccc(O)c([N+](=O)[O-])c1 [2,4-dintrophenol]",CDI (coefficient of drug interaction),"Copper (mM), 1st of 3 copper concentrations (head line not shown), biocide concentration 1 of 4, E. coli",0.87
same,CDI (coefficient of drug interaction),"Copper (mM), 1st of 3 copper concentrations (head line not shown), biocide concentration 2 of 4, E. coli",0.83
same,CDI (coefficient of drug interaction),"Copper (mM), 1st of 3 copper concentrations (head line not shown), biocide concentration 3 of 4, E. coli",1.10
same,CDI (coefficient of drug interaction),"Copper (mM), 1st of 3 copper concentrations (head line not shown), biocide concentration 4 of 4, E. coli",Tox
same,CDI (coefficient of drug interaction),"Copper (mM), 2nd of 3 copper concentrations (head line not shown), biocide concentration 1 of 4, E. coli",0.76
same,CDI (coefficient of drug interaction),"Copper (mM), 2nd of 3 copper concentrations (head line not shown), biocide concentration 2 of 4, E. coli",0.64
same,CDI (coefficient of drug interaction),"Copper (mM), 2nd of 3 copper concentrations (head line not shown), biocide concentration 3 of 4, E. coli",0.99
same,CDI (coefficient of drug interaction),"Copper (mM), 2nd of 3 copper concentrations (head line not shown), biocide concentration 4 of 4, E. coli",Tox
same,CDI (coefficient of drug interaction),"Copper (mM), 3rd of 3 copper concentrations (head line not shown), biocide concentration 1 of 4, E. coli",0.50
same,CDI (coefficient of drug interaction),"Copper (mM), 3rd of 3 copper concentrations (head line not shown), biocide concentration 2 of 4, E. coli",0.49
same,CDI (coefficient of drug interaction),"Copper (mM), 3rd of 3 copper concentrations (head line not shown), biocide concentration 3 of 4, E. coli",1.14
same,CDI (coefficient of drug interaction),"Copper (mM), 3rd of 3 copper concentrations (head line not shown), biocide concentration 4 of 4, E. coli",Tox
same,"CDI (coefficient of drug interaction), gold + biocide","first of 3 gold concentrations, biocide concentration 1 of 4",1.05
same,"CDI (coefficient of drug interaction), gold + biocide","first of 3 gold concentrations, biocide concentration 2 of 4",1.02
same,"CDI (coefficient of drug interaction), gold + biocide","first of 3 gold concentrations, biocide concentration 3 of 4",1.27
same,"CDI (coefficient of drug interaction), gold + biocide","first of 3 gold concentrations, biocide concentration 4 of 4",Tox
same,"CDI (coefficient of drug interaction), gold + biocide","second of 3 gold concentrations, biocide concentration 1 of 4",1.02
same,"CDI (coefficient of drug interaction), gold + biocide","second of 3 gold concentrations, biocide concentration 2 of 4",0.94
same,"CDI (coefficient of drug interaction), gold + biocide","second of 3 gold concentrations, biocide concentration 3 of 4",1.02
same,"CDI (coefficient of drug interaction), gold + biocide","second of 3 gold concentrations, biocide concentration 4 of 4",Tox
same,"CDI (coefficient of drug interaction), gold + biocide","third of 3 gold concentrations, biocide concentration 1 of 4",0.85
same,"CDI (coefficient of drug interaction), gold + biocide","third of 3 gold concentrations, biocide concentration 2 of 4",0.74
same,"CDI (coefficient of drug interaction), gold + biocide","third of 3 gold concentrations, biocide concentration 3 of 4",0.61
same,"CDI (coefficient of drug interaction), gold + biocide","third of 3 gold concentrations, biocide concentration 4 of 4",Tox
same,CDI,"Silver 0.5 μM, biocide concentration 1 of 4",0.72
same,CDI,"Silver 0.5 μM, biocide concentration 2 of 4",0.80
same,CDI,"Silver 0.5 μM, biocide concentration 3 of 4",0.86
same,CDI,[22],Tox
same,CDI,"Silver 1.0 μM, biocide concentration 1 of 4",0.91
same,CDI,"Silver 1.0 μM, biocide concentration 2 of 4",0.83
same,CDI,"Silver 1.0 μM, biocide concentration 3 of 4",1.02
same,CDI,[23],Tox
same,CDI,"Silver 5.0 μM, biocide concentration 1 of 4",1.10
same,CDI,"Silver 5.0 μM, biocide concentration 2 of 4",1.04
same,CDI,"Silver 5.0 μM, biocide concentration 3 of 4",1.04
same,CDI,[24],Tox
CCCCCCCCCCCCNC(=N)N [dodine],"CDI (coefficient of drug interaction), copper mixed with biocide","1st of 3 copper concentrations (value not shown), 4th of four biocide concentrations",Tox
same,"CDI (coefficient of drug interaction), copper mixed with biocide","2nd of 3 copper concentrations (value not shown), 3rd of four biocide concentrations",Tox
same,"CDI (coefficient of drug interaction), copper mixed with biocide","2nd of 3 copper concentrations (value not shown), 4th of four biocide concentrations",Tox
same,"CDI (coefficient of drug interaction), copper mixed with biocide","3rd of 3 copper concentrations (value not shown), 4th of four biocide concentrations",Tox
same,CDI (coefficient of drug interaction),[25],Tox
same,CDI (coefficient of drug interaction),[26],Tox
same,CDI (coefficient of drug interaction),[27],Tox
same,"CDI (coefficient of drug interaction), silver + biocide",[12],Tox
same,"CDI (coefficient of drug interaction), silver + biocide",[13],Tox
same,"CDI (coefficient of drug interaction), silver + biocide",[15],Tox
same,"CDI (coefficient of drug interaction), silver + biocide",[16],Tox
same,"CDI (coefficient of drug interaction), silver + biocide",[18],Tox
same,"CDI (coefficient of drug interaction), silver + biocide",[19],Tox
O=C(O)CN(CCOCCOCCN(CC(=O)O)CC(=O)O)CC(=O)O [EGTA],CDI,"Copper 0.1 mM, biocide concentration 1 of 4",1.05
same,CDI,"Copper 0.1 mM, biocide concentration 2 of 4",1.25
same,CDI,[1],1.28
same,CDI,[2],1.06
same,CDI,"Copper 0.5 mM, biocide concentration 1 of 4",0.87
same,CDI,"Copper 0.5 mM, biocide concentration 2 of 4",1.02
same,CDI,[3],1.06
same,CDI,[4],1.04
same,CDI,"Copper 1.0 mM, biocide concentration 1 of 4",0.94
same,CDI,"Copper 1.0 mM, biocide concentration 2 of 4",1.30
same,CDI,[5],1.59
same,CDI,[6],1.44
same,CDI (coefficient of drug interaction),"Gold 5 μM, biocide concentration 1 of 4, E. coli",1.05
same,CDI (coefficient of drug interaction),"Gold 5 μM, biocide concentration 2 of 4, E. coli",0.88
same,CDI (coefficient of drug interaction),[7],0.94
same,CDI (coefficient of drug interaction),[8],0.92
same,CDI (coefficient of drug interaction),"Gold 25 μM, biocide concentration 1 of 4, E. coli",1.07
same,CDI (coefficient of drug interaction),"Gold 25 μM, biocide concentration 2 of 4, E. coli",1.00
same,CDI (coefficient of drug interaction),[9],0.95
same,CDI (coefficient of drug interaction),[10],0.97
same,"CDI (coefficient of drug interaction), silver + biocide","Silver 0.5 μM, 1st of four biocide concentrations, E. coli",0.74
same,"CDI (coefficient of drug interaction), silver + biocide",[11],0.86
same,"CDI (coefficient of drug interaction), silver + biocide",[12],0.82
same,"CDI (coefficient of drug interaction), silver + biocide",[13],0.92
same,"CDI (coefficient of drug interaction), silver + biocide","Silver 1.0 μM, 1st of four biocide concentrations, E. coli",1.02
same,"CDI (coefficient of drug interaction), silver + biocide",[14],1.07
same,"CDI (coefficient of drug interaction), silver + biocide",[15],1.01
same,"CDI (coefficient of drug interaction), silver + biocide",[16],1.02
same,"CDI (coefficient of drug interaction), silver + biocide","Silver 5.0 μM, 1st of four biocide concentrations, E. coli",1.13
same,"CDI (coefficient of drug interaction), silver + biocide",[17],0.98
same,"CDI (coefficient of drug interaction), silver + biocide",[18],0.72
same,"CDI (coefficient of drug interaction), silver + biocide",[19],0.4
same,CDI (coefficient of drug interaction),"[…], biocide concentration 1 of 4, E. coli",1.02
same,CDI (coefficient of drug interaction),"[…], biocide concentration 2 of 4, E. coli",1.13
same,CDI (coefficient of drug interaction),[20],1.04
same,CDI (coefficient of drug interaction),[21],1.11
O=C1C=C(O)C(=O)c2ccccc21 [lawsone],CDI (coefficient of drug interaction),[25],Tox
same,CDI (coefficient of drug interaction),[26],Tox
same,CDI (coefficient of drug interaction),[27],Tox
same,CDI,[22],Tox
same,CDI,[23],Tox
same,CDI,[24],Tox
CCn1cc(C(=O)O)c(=O)c2cc(F)c(N3CCNCC3)nc21 [enoxacin],CDI (coefficient of drug interaction),"Gold 50 μM, biocide concentration 3 of 4, E. coli",Tox
same,CDI (coefficient of drug interaction),"Gold 50 μM, biocide concentration 4 of 4, E. coli",Tox
